The results in this text go back to a melting point compilation (Tetko et al.; mined from patent text by program, amines drawn as free bases though some values may be those of a salt).

Consider `Cc1c(-c2cc(Nc3cc4n(n3)CCN(C)C4)c(=O)n(CO)n2)cccc1N1Cc2cc(C(C)(C)C)sc2C1=O`, for which the melting point lay in the range of 185 to 187 °C.

`O=C1C2CC2C(=O)N1CCC1=CCCCC1` (stereo unspecified): the melting point lay in the range of 60 to 61 °C.

Take `CC=CCC(O)C(=O)c1ccccc1` (stereo unspecified): the melting point is 83 to 85 °C.

Turning to `CC(C)(C)OC(=O)NC(=N)c1ccc(C(=O)NCCC(=O)OCc2ccccc2)cc1`, the melting point lay within 127 to 128 °C.

Take `COc1ccc(C(=O)Nc2ncnc3c2ncn3[C@H]2CC[C@H](CC(=O)O)C[C@@H]2NC(=O)OC(C)(C)C)cc1`: the melting point fell in the range of 238 to 239 °C.

The molecule `Cc1oc(-c2ccccc2)nc1COc1ccc(CC2SC(=O)NC2=O)cc1` (stereo unspecified) registered a melting point of 162 to 163 °C.

Molecule `CC(=O)OCc1c(Br)cccc1N1CCc2c(cc3n2CCCC3)C1=O` returned a melting point of 176 to 178 °C.

On to `COCCn1nc2c(N)nc3ccccc3c2c1CC1CCOCC1`, for which the melting point was in the range of 189 to 190 °C.

In turn, `N#Cc1ccc(C(=C2CCCC2)c2nc[nH]n2)cc1` showed a melting point of 72 °C.

The molecule `CC(C)N1CCN(c2ccc(C(=O)NC3(C(=O)NCC#N)CCCCC3)cc2)CC1` returned a melting point of 218 to 220 °C.

With `CC(C)(C)OC(=O)NCCCON=C(c1ccccc1)c1cc2ccncc2[nH]1`, the melting point was in the range of 52 to 58 °C.

In turn, `O=[N+]([O-])c1cc(S(=O)(=O)N2CCC(O)C2)sc1Cl` (racemic) came in with a melting point of 96 °C.

`O=C(Nc1ccccc1S(=O)(=O)F)NC1CCCCC1` gave a melting point of 177 °C.

`CCC(=O)Oc1ccc(/C(=C(/CC)c2ccccc2)c2ccc(/C=C/C(=O)O)cc2)cc1` came in with a melting point of 158 to 160 °C.

With `CNc1cnc(N2CCOCC2)cc1-c1ccccc1C`, the melting point fell in the range of 73.5 to 76 °C.

In turn, `CCOC(=O)CC(NC(C)=O)C(=O)c1ccco1` (stereo unspecified) registered a melting point of 82 to 84 °C.

`COc1cnc(Cl)nc1NS(=O)(=O)c1cccc(Cl)c1Cl` returned a melting point of 244 to 245 °C.

Molecule `O=C(O)Cc1ccc2c(c1)sc1ccc(Cl)cc12` yielded a melting point of 220 to 221 °C.

Molecule `O=C(Cc1cccc(OC(F)(F)F)c1)NCc1cccc2c1C(=O)N(C1CCC(=O)NC1=O)C2=O` (stereo unspecified) returned a melting point of 178 to 180 °C.

Molecule `COC(=O)C1CCC2C3CCC4=CC(O)CCC4(C)C3C(=O)CC12C` (stereo unspecified) had a melting point of 121 to 125 °C.

Consider `Cc1cc(F)ccc1-c1nc(NC2CCOCC2)nc2c1ccc(=O)n2-c1ccccc1F`, for which the melting point is 211 to 212 °C.

In the case of `O=C1CCC(c2ccccc2)(c2ccccc2)C(C[N+](=O)[O-])C1` (racemic), the melting point is 164 °C.

For the molecule `CC(C)CN(CCc1c[nH]c2ccccc12)C(=O)CCCC(=O)O`, the melting point lay in the range of 140 to 141 °C.

Molecule `CCCCCCNC(=O)[C@@H]1CCCN1C(=O)[C@@H](N)C(C)C` gave a melting point of 105 to 106 °C.

The molecule `Cc1nc(N2CCN(Cc3ccccc3)C2=O)sc1C(=O)NCc1ccc(F)cc1` registered a melting point of 147 to 148 °C.

Molecule `CC(C)Nc1nc2c(Cl)cccc2n1[C@H]1O[C@@H](CO)[C@H](O)[C@@H]1O` yielded a melting point of 225 to 227 °C.

The molecule `CC(=O)N1CCc2cc(S(=O)(=O)n3c(CCC(=O)O)cc4cc(C(F)(F)F)ccc43)ccc21` gave a melting point of 205 to 207 °C.

In the case of `COc1ccc2oc(Cc3c(Cl)cccc3Cl)c(CC#N)c2c1`, the melting point amounted to 184 °C.

On to `CCOc1ccc(N2CCN(c3c(C)c4c(c(OCC)c3C)OC(C)C4)CC2)cc1` (stereo unspecified), for which the melting point lay in the range of 121 to 122 °C.

On to `CCCc1nc2c(N)nc(C)c(C)c2n1CCCCCS(=O)(=O)c1ccc(Cl)cc1`, for which the melting point was 147 to 149 °C.

`NC(=O)COc1cccc(NC(=O)c2cc(-c3cccc(F)c3)ccc2F)c1` came in with a melting point of 203 to 206 °C.

`CC#CCOc1nsc(-c2ccccc2)n1`: the melting point is 70.3 °C.

In the case of `NC1N=C(N2CCCCC2)c2ccccc2NC1=O` (stereo unspecified), the melting point was in the range of 103 to 105 °C.

Turning to `COCOc1ccc(C=O)c(OCc2ccc(Cl)cc2Cl)c1C`, the melting point is 128 °C.

In turn, `Cc1ccc(S(=O)(=O)Oc2ccc(S(=O)(=O)Cc3cccnn3)cc2)cc1` gave a melting point of 161 °C.

With `CCOc1cc(-n2c(=O)cc(C(F)(F)F)n(C)c2=O)c(F)cc1Br`, the melting point was determined as 128 °C.

For the molecule `O=C1NN=C(c2cc3ccccc3o2)CO1`, the melting point lay in the range of 209 to 211 °C.

For `CCOC(=O)c1cc(C(=O)CBr)c(=O)[nH]c1C(=O)OCC`, the melting point is 141 to 142 °C.

In the case of `CSc1nn2c(N)cc(C)nc2c1S(=O)(=O)c1ccc(Cl)cc1`, the melting point was more than 230 °C.

`CCCCCCCCOc1cnc(-c2ccc(OC(=O)[C@H]3CCCO3)cc2)nc1` yielded a melting point of 90 °C.

`COC(=O)c1ccc2c(c1)Sc1ccccc1N=C2` gave a melting point of 104 to 110 °C.

Take `CCN(CC)c1ccc(-c2cnc3[nH]cc(C(=O)C4(C)CCCCC4)c3n2)cc1`: the melting point is 211 to 213 °C.

`C#CCOC1(Nc2cccc(OCC3CO3)c2)N=CC(Br)=CN1` (stereo unspecified) registered a melting point of 173 °C.

`C#Cc1cnc2c(c1)C(=O)N(C)c1cccnc1N2CC` came in with a melting point of 117 to 118 °C.

Regarding `CCC(c1cccs1)c1c(O)c2c(oc1=O)CCCCCC2` (stereo unspecified), the melting point was 163 to 165 °C.

For the molecule `O=C(Oc1ccc([N+](=O)[O-])cc1)c1cnc2cc(I)ccc2n1`, the melting point fell in the range of 228 to 230 °C.

As for `CN(C(=O)OC(C)(C)C)c1cc(Oc2ccccc2N2CCCC2)ccc1N`, the melting point lay in the range of 136 to 138 °C.

Molecule `CC[N+](CC)(CC)C1CC(=O)N1C(C(=O)OCc1ccc([N+](=O)[O-])cc1)=C([O-])CCOC(=O)c1ccccc1` (stereo unspecified) came in with a melting point of 133 to 134 °C.

Molecule `CN1CCC(Nc2ccccc2C(=O)c2ccccc2Cl)CC1` showed a melting point of 128 to 129 °C.

Regarding `CCC(CC)(CCC#N)C(NC(=O)c1ccc(Cl)cc1)NC(=N[N+](=O)[O-])Nc1cccnc1` (stereo unspecified), the melting point fell in the range of 100 to 110 °C.

In the case of `NNc1nncc(-c2ccccc2F)n1`, the melting point lay in the range of 171 to 174 °C.

Turning to `CN(C)CCc1[nH]c2ccccc2c1CSc1ccc(Cl)cc1`, the melting point was 115 to 117 °C.

`CN(C)C(=O)c1ccc2c(c1)C(=NNc1ccc(S(N)(=O)=O)cc1)C(=O)N2` came in with a melting point of more than 230 °C.

`CC(C)c1nc(N)nc(-c2ccc(F)c3ccccc23)c1Br` had a melting point of 176 to 180 °C.

For `CCc1nc2c(cnn2CC)c(NC2CCOCC2)c1CNC(=O)c1cccc(C(=O)NCc2cc(Cl)cc(-c3cccc(CN4CCCNCC4)c3)c2)c1`, the melting point fell in the range of 121 to 124 °C.

In turn, `Cc1ccc(S(=O)(=O)OCC2(CO)OC(n3ccc(=O)[nH]c3=O)C(O)C2OCc2ccccc2)cc1` (stereo unspecified) showed a melting point of 195 to 197 °C.

Turning to `CCCCCCc1c(Cl)nc(N=CN(C)C)nc1Cl`, the melting point lay within 59 to 60 °C.

On to `Cc1ccc(-c2nc3ncccc3o2)cc1`, for which the melting point was in the range of 135 to 136 °C.

For the molecule `CNCC1CN(c2c(F)cc3c(=O)c(C(=O)O)cn(C4CC4)c3c2Cl)CC1C` (stereo unspecified), the melting point fell in the range of 253 to 255 °C.

The molecule `COCc1cccc(COC)c1C#N` yielded a melting point of 80 to 81 °C.

`CC(=O)OCC1OC(n2c3ccccc3c3c4c(c5c6cccnc6[nH]c5c32)C(=O)N(CO)C4=O)C(OC(C)=O)C(OC(C)=O)C1OC(C)=O` (stereo unspecified) displayed a melting point of 264 to 266 °C.

For `Nc1cccc(C(=O)O)c1S(=O)(=O)CCO`, the melting point lay within 75 to 77 °C.

Turning to `COc1ncnc(OC)c1C(C(C)C)N(C)C(=O)Cc1ccc(Cl)cc1` (stereo unspecified), the melting point is 107 to 109 °C.

`C[C@@H](O)c1nccc(N2CCc3ccc(S(=O)(=O)N(C)C)cc3C2)n1`: the melting point lay in the range of 120 to 122 °C.

`COc1ccc(-c2ncn(C3CCCCO3)c2-c2ccc(OC)cc2)cc1` (stereo unspecified) yielded a melting point of 127 to 128 °C.

Consider `Nc1ncc2ncn(CCO)c2n1`, for which the melting point lay in the range of 173 to 175 °C.

Regarding `CCc1cccc(NC(=O)C=C(C)C)c1`, the melting point stood at 90 °C.

The molecule `Cn1cccc1-c1nc(-c2cccnc2)no1` gave a melting point of 108 to 109 °C.

As for `CC(=O)N(C)Cc1ccc(C(=O)Cn2cnc3cc(-c4ccc(Cl)cc4)sc3c2=O)cc1`, the melting point fell in the range of 250 to 251 °C.

On to `CN[C@@]1(C)CCN(c2c(-c3ccccc3)c(C)c(C#N)c3nc(C(=O)N(C)C)oc23)C1`, for which the melting point lay within 172 to 174 °C.

With `CC(O)Cn1cc(-c2ccccc2)c2ccccc2c1=O` (stereo unspecified), the melting point came out at 162 °C.

The molecule `CCCc1nc2c(N)nc3ccccc3c2n1CCOCCCS(=O)(=O)c1ccccc1C` yielded a melting point of 159 to 160 °C.

Turning to `COc1cc2c(cc1OCc1ccccc1)CC(C)(C)N=C2C`, the melting point is 87.9 to 90 °C.

`O=C(N[C@H]1CC[C@H](CCN2CCC(c3cccc4c3CCO4)CC2)CC1)c1ccc(N2CCOCC2)nc1` registered a melting point of 228 °C.

Molecule `CC(C)(O)C(=O)Nc1ccc2ccccc2c1` returned a melting point of 155 to 157 °C.

Molecule `CC(=O)OCc1ccc2oc(=O)c(C(=O)Oc3cncc(Cl)c3)cc2c1` registered a melting point of 153 to 155 °C.

For `CC1Cc2c(N3CCN(CC(F)(F)F)CC3)c(F)cc3c(=O)c(C(=O)O)cn1c23` (stereo unspecified), the melting point fell in the range of 287 to 289 °C.

Consider `CCOC(=O)C(Cc1cc(Oc2c(Cl)cc(C(F)(F)F)cc2Cl)ccc1SC(F)(F)F)C(=O)OCC`, for which the melting point is 83 °C.

As to `OC(c1ccc(C(F)(F)F)cc1)c1ccc(C(F)(F)F)cc1`, the melting point amounted to 80 °C.

In turn, `CN(c1cc(OCCCS(C)(=O)=O)cc2cc(C(=O)NCC(CN3CCN(S(C)(=O)=O)CC3)SCc3ccccc3)[nH]c12)S(=O)(=O)c1ccccn1` (stereo unspecified) registered a melting point of 195 to 196 °C.

In turn, `CCc1[nH]c2ccc(OC)cc2c1/C=C/C(=O)c1ccncc1` displayed a melting point of 214 to 215 °C.

Molecule `CC1CCC2(OC1)OC1CC3C4CCC5CC(OCCO)CCC5(C)C4CCC3(C)C1C2C` (stereo unspecified) returned a melting point of 207 to 208 °C.

`O=C(OC[C@@H]1CC(c2ccc(-c3ccc(N4C[C@H](Cn5ccnn5)OC4=O)cc3F)cn2)=NO1)c1cnccn1` came in with a melting point of 205 to 226 °C.

`O=C(c1ccccc1)c1cc(Cl)cc2c1OCC2C(=O)O` (stereo unspecified) registered a melting point of 155 to 157 °C.

Take `COc1cccc(-c2nc3n(n2)Cc2cc(OC)ccc2-3)c1`: the melting point lay in the range of 166 to 167 °C.

Take `CNC(=S)NS(=O)(=O)c1cc(CCNC(=O)/C=C/c2cccs2)ccc1OCCOC`: the melting point turned out to be 140 °C.

By melting point is commonly meant the temperature of the solid-liquid transition.
